Bridge positions count the residues as written; N and C are the ends. Peptide text beside a SMILES is read from it.

Series [1] in a line: Enzymatic stability against trypsin. The class given is in vitro ADME. The note with it: isolated enzyme trypsin; endopeptidase trypsin, up to 6 hr, 37 °C, 100 mM ammonium bicarbonate pH 7.8; 28 µg peptide; quenched with 1 M HCl; UPLC peak area with MALDI-TOF MS; read-out: peptide remaining after trypsin. How it is done:
The β-ginkgotide β-gB1 (28 µg) was added to 100 µL of 100 mM ammonium bicarbonate buffer (pH 7.8) and incubated in a water bath at 37 °C for 6 hr. At each time-point (0 and 6 hr), 20 µL of the treated sample was aliquoted and quenched by adding 5 µL of 1 M hydrochloric acid.
The reaction mixture was analyzed by a Nexera UHPLC system (Shimadzu, Kyoto, Japan) equipped with an Aeris peptide XB-C18 column (Phenomenex, CA, USA; particle size 3.6 µm, 100 × 4.6 mm). The eluents were monitored with MALDI-TOF MS, and the area under the peak before and after the treatment was determined to evaluate stability.
Figure S5. Stability assays of β-gB1. (A) Thermal stability of β-gB1 incubated at 100 °C for 120 minutes. (B) Acidic condition stability of […] incubated in 0.2 M HCl (pH 2.0) at 37 °C for 120 minutes. […] The molecular weight of the peak was determined by MALDI-TOF MS.

Series [2] in a line: Enzymatic stability against carboxypeptidase A. In kind it is in vitro ADME. The note with it: isolated enzyme carboxypeptidase; exopeptidase carboxypeptidase A (method prints 100 nM carboxypeptidase B), up to 6 hr, 37 °C, 50 mM Tris-HCl pH 7.5, 100 mM NaCl; 28 µg peptide; UPLC peak area with MALDI-TOF MS; read-out: peptide remaining after carboxypeptidase A.
In series [3] the test system is erythrocytes obtained from human type O blood. The series can be described thus: Hemolytic effect on erythrocytes. In kind it is cell-based. The settings on record: human type O erythrocytes in PBS; concentrations up to 100 µM; 4 hr, 37 °C; read at 415 nm. How it is done:
Erythrocytes were isolated from fresh blood type O+ by centrifugation for 15 min at 10000 rpm. The erythrocytes were diluted with phosphate-buffered saline, mixed with various concentrations of β-ginkgotide β-gB1 (1–100 µM) and incubated for 4 hr at 37 °C. The hemolytic effect was examined using a microplate reader set at 415 nm^3.

Series [4] deals with Vero cell line. The series can be described thus: In vitro cytotoxicity (MTT), Vero cells. The class given is cell-based. The settings on record: concentrations up to 100 µM, 24 hr.
Series [5] relates to BHK cell line. The series can be described thus: In vitro cytotoxicity (MTT), BHK cells. The class given is cell-based. The settings on record: concentrations up to 100 µM, 24 hr.

As usually defined, the fraction remaining is what is left of the initial amount, in per cent. As to `CC[C@H](C)[C@@H]1NC(=O)[C@@H]2CSSC[C@H](NC(=O)CNC(=O)[C@@H](NC(=O)[C@H](CCC(=O)O)NC(=O)[C@@H](N)Cc3ccc(O)cc3)[C@@H](C)O)C(=O)N[C@@H](CCCCN)C(=O)N[C@@H](CCCNC(=N)N)C(=O)N[C@H]3CSSC[C@@H](C(=O)O)NC(=O)[C@H](CSSC[C@H](NC3=O)C(=O)N[C@@H](Cc3ccc(O)cc3)C(=O)N[C@@H](CC(C)C)C(=O)N[C@@H](CC(=O)O)C(=O)N[C@@H](CCC(=O)O)C(=O)N[C@@H](Cc3ccc(O)cc3)C(=O)NCC(=O)N2)NC(=O)[C@H](CCCNC(=N)N)NC1=O` [β-gB1] (H-YETGCKRCCYLDEYGCIRCC-OH; disulfide 5-16, 8-20, 9-19), the fraction remaining at 6 h in series [1] and in series [2] was greater than 90% in each case. Also, the hemolytic effect entry in series [3] is “no hemolytic effect”. Moreover, the “cytotoxic effect, Vero cells” value in series [4] is on record as “nontoxic”. The “cytotoxic effect, BHK cells” value in series [5] is “nontoxic”.

Source of the values: paper PMC5522442, “β-Ginkgotides: Hyperdisulfide-constrained peptides from Ginkgo biloba” (Scientific Reports, 2017).
